In US8993717B2, “Gadd45beta targeting agents” (Imperial Innovations Limited, priority 2009, dated 2015):
Square brackets hold non-standard residues; d marks the D form. Peptide text beside a SMILES is read from it.

Columns and labels:
Gadd45β = target: T1, Gadd45β (Homo sapiens, UniProt O75293); experiment: Surface Plasmon Resonance, immobilized Gadd45β; assay type: binding; settings: 1 nM to 10 μM
T1 construct: made in house
T1 sequence (O75293 1-160): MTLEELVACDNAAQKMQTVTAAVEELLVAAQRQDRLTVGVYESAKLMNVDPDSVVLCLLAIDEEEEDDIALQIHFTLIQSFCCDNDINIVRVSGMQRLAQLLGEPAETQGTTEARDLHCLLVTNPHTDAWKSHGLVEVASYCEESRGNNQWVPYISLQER
Method: To determine how DTPs bind to the Gadd45 β/MKK7 complex, experiments were performed with a Biacore3000 SPR instrument (GE Healthcare, Milan, Italy), using 4-channels CM5 sensorchips (GE Healthcare, Milan, Italy). Full length human Gadd45β was prepared and purified as described in the reference by Tornatore L., et al. (2008). J Mol Biol; 378:97-111. […] The protein was purified to homogeneity by two subsequent steps of affinity chromatography (Ni-NTA support) and gel filtration (Superdex G75), and then characterized by SDS-PAGE, LC-MS to verify identity and purity, and by Circular Dichroism to assess folding.
MKK7KD was immobilized on the Biacore sensorchip via classical EDC/NHS coupling chemistry at pH 5 (protein pI, ˜9) at a flow rate of 5 uL/min An immobilization level of about 8000 Response Units was achieved. Gadd45β, which is an intrinsically acidic protein with a pI of about 4.5, was immobilized at pH 3.5 (6000 RU immobilization levels) on a separate channel. The residual reactive groups on both the Gadd45β and MKK7KD channels were finally inactivated by treatment with ethanolamine. On another channel the same procedure of activation with EDC/NHS and inactivation with ethanolamine was performed. […]

MKK7 = target: T2, MKK7 (Homo sapiens, UniProt O14733); experiment: MKK7 kinase assay in the absence of Gadd45β; assay type: biochemical; settings: 1 nM or 5 nM peptide
T2 construct: expressed in transfected cells; host or cells: HEK-293
T2 sequence (O14733 1-419): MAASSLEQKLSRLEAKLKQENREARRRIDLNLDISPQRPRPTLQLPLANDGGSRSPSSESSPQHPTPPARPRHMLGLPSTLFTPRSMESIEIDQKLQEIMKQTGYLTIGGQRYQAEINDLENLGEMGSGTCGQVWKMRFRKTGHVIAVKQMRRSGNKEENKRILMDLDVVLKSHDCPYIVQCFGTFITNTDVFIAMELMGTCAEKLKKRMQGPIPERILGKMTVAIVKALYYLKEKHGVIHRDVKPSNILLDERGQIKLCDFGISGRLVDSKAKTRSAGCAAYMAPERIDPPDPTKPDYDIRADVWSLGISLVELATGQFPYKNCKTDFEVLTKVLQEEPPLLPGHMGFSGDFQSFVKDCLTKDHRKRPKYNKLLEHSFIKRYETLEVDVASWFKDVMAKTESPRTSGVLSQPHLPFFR
Method: In FIG. 6, transient transfection of pcDNA-FLAG-MKK7 in HEK-293 cells was performed using the method of Ca3(PO4)2 precipitation, essentially as described in Papa, S et al., (2004) Nat. Cell Biol. 6, 146-153 and references therein. 36 hrs after transfection, the cells were treated with 100 ng/ml phorbol 12-myristate 13-acetate (PMA) and 1 μM ionomycin for 30 min at 37° C. Cell extracts were prepared as described in example 4 and used for immunoprecipitation with anti-FLAG antibodies (binding to FLAG-MKK7) as described in Papa, S et al., (2004) Nat. Cell Biol. 6, 146-153 and references therein. Briefly, 50 μg of cell lysate from PMA-ionomycin (P/D-treated or untreated, HEK-293 cells transiently expressing FLAG-MKK7 was incubated with 10 μl of anti-FLAG M2 Affinity Gel (SIGMA) for 4 hrs at 4° C. during rotation. The immunoprecipitates were then washed 3 times in lysis buffer and twice more in kinase buffer (10 mM HEPES, 5 mM MgCl2, 1 mM MnCl2,12.5 mM β-glycerophosphate, 2 mM DTT, 4 mM NaF and 0.1 mM Na3VO4). MKK7 catalytic activity was finally measured in kinase assays by incubating FLAG-MKK7 immunoprecipitates at 30° C. for 20 min with 20 μl of kinase buffer containing 2 μM of recombinant GST-JNK1 and 5 μCi of [γ-^32P]ATP) (kinase reaction), as described in Papa, S et a., (2004) Nat. Cell Biol. 6, 146-153 and references therein. […]

| Compound | binding to Gadd45β in isolation (Gadd45β) | inhibition of MKK7 catalytic activity in the absence of Gadd45β (MKK7) |
| --- | --- | --- |
| CC(=O)N[C@H](Cc1ccc(O)cc1)C(=O)N[C@H](CCCNC(=N)N)C(=O)N[C@H](Cc1ccccc1)C(N)=O [Compound 17, Ac-D-Tyr-D-Arg-D-Phe-NH2] (Ac-[dY]-[dR]-[dF]-NH2) | does not bind | – |
| CC(=O)N[C@H](Cc1ccc(O)cc1)C(=O)N[C@H](CC(=O)O)C(=O)N[C@H](Cc1c[nH]cn1)C(=O)N[C@H](Cc1ccccc1)C(N)=O [DTP1, Acetyl-(D-Tyr)-(D-Asp)-(D-His)-(D-Phe)-NH2] (Ac-[dY][dD][dH][dF]-NH2) | – | nor the active tetrapeptides, DTP1 and DTP2, afforded any inhibition |
| CC(=O)N[C@H](Cc1ccc(O)cc1)C(=O)N[C@H](CCC(=O)O)C(=O)N[C@H](CCCNC(=N)N)C(=O)N[C@H](Cc1ccccc1)C(N)=O [DTP2, Acetyl-(D-Tyr)-(D-Glu)-(D-Arg)-(D-Phe)-NH2] (Ac-[dY][dE][dR][dF]-NH2) | – | nor the active tetrapeptides, DTP1 and DTP2, afforded any inhibition |
